Experimental data taken from patent US11066392B2, “Inhibitors of indoleamine 2,3-dioxygenase and methods of their use” (BRISTOL-MYERS SQUIBB COMPANY, priority 2017, dated 2021).

molecular target: T1, human IDO1 (Homo sapiens, UniProt P14902); test: HEK293 cell-based indoleamine 2,3-dioxygenase (IDO) assay; details: human IDO1/HEK293 cells, 20 hours incubation; read-out: IDO1 HEK Human IC50
T1 construct: expressed in transfected cells
Protocol: Assessment of inhibitor activity in HEK293 cell-based indoleamine 2,3-dioxygenase (IDO) assay.
HEK293 cells were transfected with a pCDNA-based mammalian expression vector harboring human IDO1 cDNA (NM 002164.2) by electroporation. They were cultured in medium (DMEM with 10% FBS) containing 1 mg/ml G418 for two weeks. Clones of HEK293 cells that stably expressed human IDO1 protein were selected and expanded for IDO inhibition assay.
The human IDO1/HEK293 cells were seeded at 10,000 cells per 50 μL per well with RPMI/phenol red free media contains 10% FBS in a 384-well black wall clear bottom tissue culture plate (Matrix Technologies LLC) 100 nL of certain concentration of compound was then added to each well using ECHO liquid handling systems. The cells were incubated for 20 hours in 37° C. incubator with 5% CO2.
The compound treatments were stopped by adding trichloroacetic acid (Sigma-Aldrich) to a final concentration at 0.2%. The cell plate was further incubated at 50° C. for 30 minute. The equal volume supernatant (20 μL) and 0.2% (w/v) Ehrlich reagent (4-dimethylaminobenzaldehyde, Sigma-Aldrich) in glacial acetic acid were mixed in a new clear bottom 384-well plate. This plate was then incubated at room temperature for 30 minute. The absorbance at 490 nm was measured on Envision plate reader.
Compound IC50 values were calculated using the counts of 500 nM of a reference standard treatment as one hundred percent inhibition, and counts of no compound but DMSO treatment as zero percent inhibition.
Activity for compounds described herein is provided in Table 1, wherein potency levels are provided as follows: (Potency: IDO IC50: A<0.01 μM; B<0.1 μM; C<10 μM)

T1 sequence (P14902 whole entry): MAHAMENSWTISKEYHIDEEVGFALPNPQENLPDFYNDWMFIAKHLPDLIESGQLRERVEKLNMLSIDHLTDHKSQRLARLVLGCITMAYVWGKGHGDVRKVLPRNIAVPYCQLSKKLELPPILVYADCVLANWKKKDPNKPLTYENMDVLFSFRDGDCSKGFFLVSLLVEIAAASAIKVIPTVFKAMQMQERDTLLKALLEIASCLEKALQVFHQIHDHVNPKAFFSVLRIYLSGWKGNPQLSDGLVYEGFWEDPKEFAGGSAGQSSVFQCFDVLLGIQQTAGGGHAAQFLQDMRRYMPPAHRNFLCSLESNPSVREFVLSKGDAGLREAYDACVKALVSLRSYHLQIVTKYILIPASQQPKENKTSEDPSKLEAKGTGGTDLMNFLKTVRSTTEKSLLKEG

**Q.** How did the IC50 turn out when `CC[C@@H](NC(=O)c1ccc(OC)nc1)[C@H]1CC[C@@H](c2ccnc3ccc(F)cc32)CC1` (single isomer, unassigned) [Example 10a, N-(1-(4-(6-Fluoroquinolin-4-yl)cyclohexyl)propyl)-6-methoxynicotinamide] was run?
**A.** The IC50 was 0.224 µM.

**Q.** For `CC[C@@H](NC(=O)c1ccc(OC)nc1)[C@H]1CC[C@@H](c2ccnc3ccc(F)cc32)CC1` (single isomer, unassigned) [Example 10c, N-(1-(4-(6-Fluoroquinolin-4-yl)cyclohexyl)propyl)-6-methoxynicotinamide], which IC50 is on record?
**A.** The IC50 was 0.055 µM.

**Q.** With `CC[C@@H](NC(=O)c1ccc(OC)nc1)[C@H]1CC[C@@H](c2ccnc3ccc(F)cc32)CC1` (single isomer, unassigned) [Example 10d, N-(1-(4-(6-Fluoroquinolin-4-yl)cyclohexyl)propyl)-6-methoxynicotinamide] as the molecule, how does the IC50 read?
**A.** Its IC50 is 0.037 µM.

**Q.** How did the IC50 turn out when `C[C@@H](NC(=O)c1ccc(O)nc1)[C@H]1CC[C@@H](c2ccnc3ccc(F)cc32)CC1` [Example 3, N-((R)-1-((1s,4S)-4-(6-Fluoroquinolin-4-yl)cyclohexyl)ethyl)-6-hydroxynicotinamide] was run?
**A.** Its IC50 is 0.252 µM.

**Q.** How did the IC50 turn out when `COCCOc1ccc(-c2ccc(C(=O)N[C@H](C)[C@H]3CC[C@@H](c4ccnc5ccc(F)cc54)CC3)cn2)cc1` [Example 6] was run?
**A.** The IC50 was 0.488 µM.

molecular target: indoleamine 2,3-dioxygenase (IDO) (Homo sapiens, UniProt P14902); test: HeLa cell-based indoleamine 2,3-dioxygenase (IDO) assay (kynurenine production, IFNγ-stimulated); details: HeLa cells, IFNγ 25 ng/mL, 48 hour incubation; read-out: IDO Hela IC50
Sequence (P14902 whole entry): as above

**Q.** With `CC[C@@H](NC(=O)c1ccc(OC)nc1)[C@H]1CC[C@@H](c2ccnc3c(F)cccc32)CC1` (single isomer, unassigned) [Example 59a, N-(1-(4-(8-fluoroquinolin-4-yl)cyclohexyl)propyl)-6-methoxynicotinamide] as the molecule, how does the IC50 read?
**A.** Its IC50 is 0.1 µM.

**Q.** Which IC50 does the source give for `CC[C@@H](NC(=O)c1ccc(OC)nc1)[C@H]1CC[C@@H](c2ccnc3c(F)cccc32)CC1` (single isomer, unassigned) [Example 59c, N-(1-(4-(8-fluoroquinolin-4-yl)cyclohexyl)propyl)-6-methoxynicotinamide] here?
**A.** Its IC50 is 0.33 µM.

**Q.** How did the IC50 turn out when `CC[C@@H](NC(=O)c1ccc(OC)nc1)[C@H]1CC[C@@H](c2ccnc3c(F)cccc32)CC1` (single isomer, unassigned) [Example 59d, N-(1-(4-(8-fluoroquinolin-4-yl)cyclohexyl)propyl)-6-methoxynicotinamide] was run?
**A.** The IC50 was 0.11 µM.

**Q.** For `CC[C@@H](NC(=O)c1cnc(OC)nc1)[C@H]1CC[C@@H](c2ccnc3c(F)cccc32)CC1` (single isomer, unassigned) [Example 60a, N-(1-(4-(8-fluoroquinolin-4-yl)cyclohexyl)propyl)-2-methoxypyrimidine-5-carboxamide], which IC50 is on record?
**A.** Its IC50 is 0.82 µM.

**Q.** How did the IC50 turn out when `CC[C@@H](NC(=O)c1cnc(OC)nc1)[C@H]1CC[C@@H](c2ccnc3c(F)cccc32)CC1` (single isomer, unassigned) [Example 60b, N-(1-(4-(8-fluoroquinolin-4-yl)cyclohexyl)propyl)-2-methoxypyrimidine-5-carboxamide] was run?
**A.** The IC50 was 0.25 µM.

**Q.** `CC[C@@H](NC(=O)c1cnc(OC)nc1)[C@H]1CC[C@@H](c2ccnc3c(F)cccc32)CC1` (single isomer, unassigned) [Example 60c, N-(1-(4-(8-fluoroquinolin-4-yl)cyclohexyl)propyl)-2-methoxypyrimidine-5-carboxamide] was tested. Which IC50 did it give?
**A.** The IC50 was 0.01 µM.

**Q.** `CC[C@@H](NC(=O)c1cnc(OC)nc1)[C@H]1CC[C@@H](c2ccnc3c(F)cccc32)CC1` (single isomer, unassigned) [Example 60d, N-(1-(4-(8-fluoroquinolin-4-yl)cyclohexyl)propyl)-2-methoxypyrimidine-5-carboxamide] was tested. Which IC50 did it give?
**A.** Its IC50 is 0.17 µM.

**Q.** With `CC[C@H](NC(=O)c1cnc(C)nc1)[C@H]1CC[C@H](c2ccnc3c(F)cccc32)CC1` (single isomer, unassigned) [Example 61b, N-(1-(4-(8-fluoroquinolin-4-yl)cyclohexyl)propyl)-2-methylpyrimidine-5-carboxamide] as the molecule, how does the IC50 read?
**A.** Its IC50 is 0.67 µM.

**Q.** With `CC[C@H](NC(=O)c1cnc(C)nc1)[C@H]1CC[C@H](c2ccnc3c(F)cccc32)CC1` (single isomer, unassigned) [Example 61d, N-(1-(4-(8-fluoroquinolin-4-yl)cyclohexyl)propyl)-2-methylpyrimidine-5-carboxamide] as the molecule, how does the IC50 read?
**A.** Its IC50 is 0.02 µM.

**Q.** With `COc1ccc(C(=O)NC(C)C2(O)CCC(c3ccnc4ccc(F)cc34)CC2)cn1` (single isomer, unassigned) [Example 62a, N-(1-((1r,4r)-4-(6-fluoroquinolin-4-yl)-1-hydroxycyclohexyl)ethyl)-6-methoxynicotinamide] as the molecule, how does the IC50 read?
**A.** Its IC50 is 0.07 µM.

**Q.** How did the IC50 turn out when `COc1ccc(C(=O)NC(C)C2(O)CCC(c3ccnc4ccc(F)cc34)CC2)cn1` (single isomer, unassigned) [Example 62b, N-(1-((1r,4r)-4-(6-fluoroquinolin-4-yl)-1-hydroxycyclohexyl)ethyl)-6-methoxynicotinamide] was run?
**A.** Its IC50 is 0.02 µM.

**Q.** How did the IC50 turn out when `COCC(NC(=O)c1ccc(OC)nc1)C1CCC(c2ccnc3ccc(F)cc23)CC1` (stereo not drawn) [Example 14b, N-(1-((1s,4s)-4-(6-Fluoroquinolin-4-yl)cyclohexyl)-2-methoxyethyl)-6-methoxynicotinamide] was run?
**A.** Its IC50 is 0.01 µM.

**Q.** Which IC50 does the source give for `CCC(NC(=O)c1cnc(C)nc1)C1CCC(c2ccnc(OC)c2F)CC1` (stereo not drawn) [Example 23, N-(1-(4-(3-Fluoro-2-methoxypyridin-4-yl)cyclohexyl)propyl)-2-methylpyrimidine-5-carboxamide] here?
**A.** The IC50 was 0.11 µM.

same assay, conditions: HeLa cells; potency class; read-out: Patent Potency Hela IC50 A < 10 nM, B > 10 nM, C > 100 nM

**Q.** How did the IC50 turn out when `CCC(NC(=O)c1cnc(OC)nc1)C1CCC(c2ccnc3c(F)cc(F)cc23)CC1` (single isomer, unassigned) [Example 58d] was run?
**A.** Its IC50 is less than 0.01 µM.

**Q.** How did the IC50 turn out when `CC[C@H](NC(=O)c1cnc(C)nc1)[C@H]1CC[C@H](c2ccnc3c(F)cccc32)CC1` (single isomer, unassigned) [Example 61c, N-(1-(4-(8-fluoroquinolin-4-yl)cyclohexyl)propyl)-2-methylpyrimidine-5-carboxamide] was run?
**A.** Its IC50 is greater than 0.1 µM.

**Q.** For `CCC(NC(=O)c1ccc(=O)[nH]c1)C1CCC(c2ccnc(OC)c2C(F)F)CC1` (single isomer, unassigned) [Example 63-1, N-(1-((1s,4s)-4-(3-(difluoromethyl)-2-methoxypyridin-4-yl)cyclohexyl)propyl)-6-oxo-1,6-dihydropyridine-3-carboxamide], which IC50 is on record?
**A.** The IC50 was greater than 0.1 µM.

**Q.** For `CCC(NC(=O)c1ccc(OC)nc1)C1CCC(c2cc[nH]c(=O)c2C(F)F)CC1` (single isomer, unassigned) [Example 64-1, N-(1-((1s,4s)-4-(3-(difluoromethyl)-2-oxo-1,2-dihydropyridin-4-yl)cyclohexyl)propyl)-6-methoxynicotinamide], which IC50 is on record?
**A.** Its IC50 is greater than 0.1 µM.

**Q.** Which IC50 does the source give for `[2H]C([2H])([2H])Oc1ccc(C(=O)NC(CC)C2CCC(c3ccnc(OC)c3C(F)F)CC2)cn1` (single isomer, unassigned) [Example 66-1, N-(1-((1s,4s)-4-(3-(difluoromethyl)-2-methoxypyridin-4-yl)cyclohexyl)propyl)-6-(methoxy-d3)nicotinamide] here?
**A.** The IC50 was greater than 0.1 µM.

**Q.** `[2H]C([2H])([2H])Oc1ccc(C(=O)NC(CC)C2CCC(c3ccnc(OC)c3C(F)F)CC2)cn1` (single isomer, unassigned) [Example 66-2, N-(1-((1s,4s)-4-(3-(difluoromethyl)-2-methoxypyridin-4-yl)cyclohexyl)propyl)-6-(methoxy-d3)nicotinamide] was tested. Which IC50 did it give?
**A.** The IC50 was less than 0.01 µM.

**Q.** How did the IC50 turn out when `CCC(NC(=O)c1ccc(OC)nc1)C1CCC(c2ccnc(F)c2C)CC1` (single isomer, unassigned) [Example 68-1, N-(1-((1r,4r)-4-(2-Fluoro-3-methylpyridin-4-yl)cyclohexyl)propyl)-6-methoxynicotinamide] was run?
**A.** The IC50 was greater than 0.01 µM.

**Q.** For `CCC(NC(=O)c1ccc(OC)nc1)C1CCC(c2ccnc(F)c2C)CC1` (single isomer, unassigned) [Example 68-2, N-(1-((1r,4r)-4-(2-Fluoro-3-methylpyridin-4-yl)cyclohexyl)propyl)-6-methoxynicotinamide], which IC50 is on record?
**A.** The IC50 was greater than 0.1 µM.

**Q.** For `COCC(NC(=O)c1ccc(OC)nc1)C1CCC(c2ccnc3ccc(F)cc23)CC1` (stereo not drawn) [Example 14a, N-(1-((1s,4s)-4-(6-Fluoroquinolin-4-yl)cyclohexyl)-2-methoxyethyl)-6-methoxynicotinamide], which IC50 is on record?
**A.** The IC50 was less than 0.01 µM.

**Q.** How did the IC50 turn out when `CCC(NC(=O)c1ccc(OC)nc1)C1CCC(c2ccnc(OC)c2F)CC1` (stereo not drawn) [Example 22, N-(1-(4-(3-Fluoro-2-methoxypyridin-4-yl)cyclohexyl)propyl)-6-methoxynicotinamide] was run?
**A.** Its IC50 is greater than 0.1 µM.

**Q.** For `CCC(NC(=O)c1ccc(=O)[nH]c1)[C@H]1CC[C@@H](c2ccnc(OC)c2C(F)F)CC1` (stereo partly drawn) [Example 63-2, N-(1-((1s,4s)-4-(3-(difluoromethyl)-2-methoxypyridin-4-yl)cyclohexyl)propyl)-6-oxo-1,6-dihydropyridine-3-carboxamide], which IC50 is on record?
**A.** The IC50 was greater than 0.01 µM.

**Q.** With `CCC(NC(=O)c1ccc(OC)nc1)[C@H]1CC[C@@H](c2cc[nH]c(=O)c2C(F)F)CC1` (stereo partly drawn) [Example 64-2, N-(1-((1s,4s)-4-(3-(difluoromethyl)-2-oxo-1,2-dihydropyridin-4-yl)cyclohexyl)propyl)-6-methoxynicotinamide] as the molecule, how does the IC50 read?
**A.** The IC50 was greater than 0.1 µM.
